US20230110757A1, “METHODS FOR TREATING ANIMALS, FEED, DRINKING WATER, WASH WATER, PROCESSING EQUIPMENT, PACKAGING MATERIALS, AND FOOD PRODUCTS” (EVOQ NANO, INC., priority 2021, published 2023)

System: E. coli, KwikStik, ATCC #51813
Experiment: Antibacterial efficacy test, RLU (ATP) counts post treatment
Type: cell-based
Description: An antibacterial efficacy test was carried out comparing an “Attostat” nanoparticle formulation (8 nm size) against silver nitrate and against the National Institute of Standards and Technology (NIST) Standard Nanocomposix 10 nm silver nanoparticles. The NIST nanoparticles are formed by a chemical reduction process that utilizes citrate as reducing and capping agent.
Relative Light Unit (RLU) counts were recorded at 12 hours and 24 hours post treatment. RLU measurements were carried out using a Hygiena SystemSURE Plus V.2 SN067503 RLU meter with Hygenia AquaSnap TOTAL ATP Water Test Cat #U143 Lot #153019. Culturing media was Hardy Diagnostics Buffered Peptone Water Lot #118272. Samples were prepared with the nanoparticle treatments and then diluted with the media to provide the tested concentrations. The test organism (Microbiologics, E. coli, KwikStik, ATCC #51813, Ref #0791 K, Lot #791-1-6) was incubated in fresh Buffered Peptone Water growth media for 24 hours prior to exposure to the nanoparticle treatments.

O=[N+]([O-])[O-].[Ag+] [AgNO3 Silver Nitrate, silver nitrate]
RLU Counts at 12 Hours Post Exposure to Nanoparticle Treatment (0.25 ppm (mg/L)): 80 RLU
RLU as percentage of control at 12 Hours Post Treatment (0.25 ppm (mg/L)): 1.2%
RLU Counts at 24 Hours Post Exposure to Nanoparticle Treatment (0.25 ppm (mg/L)): 25 RLU
RLU as percentage of control at 24 Hours Post Treatment (0.25 ppm (mg/L)): 0.34%
RLU Counts at 12 Hours Post Exposure to Nanoparticle Treatment (0.5 ppm (mg/L)): 75 RLU
RLU as percentage of control at 12 Hours Post Treatment (0.5 ppm (mg/L)): 1.1%
RLU Counts at 24 Hours Post Exposure to Nanoparticle Treatment (0.5 ppm (mg/L)): 46 RLU
RLU as percentage of control at 24 Hours Post Treatment (0.5 ppm (mg/L)): 0.62%
RLU Counts at 12 Hours Post Exposure to Nanoparticle Treatment (1.0 ppm (mg/L)): 84 RLU
RLU as percentage of control at 12 Hours Post Treatment (1.0 ppm (mg/L)): 1.3%
RLU Counts at 24 Hours Post Exposure to Nanoparticle Treatment (1.0 ppm (mg/L)): 30 RLU
RLU as percentage of control at 24 Hours Post Treatment (1.0 ppm (mg/L)): 0.41%
